Source: BigSolDB 2.1

CC1(C)[C@H](C(=O)O)[C@@H]1/C=C(\Cl)C(F)(F)F (racemic)
solubility (mole fraction)
Conditions	283.15 K	288.15 K	293.15 K	298.15 K	303.15 K	308.15 K	313.15 K	318.15 K	323.15 K
in cyclohexane	0.00261	0.00304	0.00447	0.00592	0.00821	0.0119	0.0175	0.0258	0.0384
in ethanol	0.077	0.0817	0.0944	0.106	0.121	0.143	0.168	0.195	0.228
in ethyl acetate	0.0818	0.0938	0.109	0.123	0.141	0.165	0.186	0.217	0.243
in isobutanol	0.0701	0.0843	0.099	0.116	0.13	0.147	0.168	0.2	0.233
in methanol	0.058	0.0664	0.0722	0.0813	0.098	0.119	0.139	0.166	0.191
in methyl acetate	0.0727	0.0848	0.0976	0.114	0.129	0.151	0.171	0.2	0.226
in n-butanol	0.0748	0.0848	0.0964	0.11	0.129	0.149	0.167	0.203	0.239
in n-butyl acetate	0.089	0.102	0.119	0.135	0.153	0.175	0.195	0.223	0.247
in n-propanol	0.0753	0.0829	0.0944	0.109	0.13	0.142	0.173	0.213	0.252
in sec-butanol	0.0987	0.111	0.138	0.161	0.179	0.204	0.231	0.265	0.285
in tert-butanol	0.13	0.144	0.169	0.197	0.224	0.247	0.271	0.3	0.331
